Test results as given in patent publication US11566007B2, “Ras inhibitors” (Revolution Medicines, Inc., priority 2019, dated 2023).

Tests used:
NRAS WT = NRAS WT (Homo sapiens (Human), UniProt P01111+P62937); assay: Ras-Raf (BRAF RBD) disruption / FRET / MOA assay, NRAS WT; type: biochemical; details: read-out: IC50* NRAS WT FRET data
Summary of the method: (§1)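 Compounds were tested as a 10-point 3-fold dilution series from 30 μM final for their ability to drive ternary complex formation between nucleotide-loaded Ras and cyclophilin A, displacing the BRAF RBD. After 3 h at 25° C., anti-His Eu-W1024 (10 nM) and anti-GST allophycocyanin (50 nM) were added for 1.5 h. A TR-FRET ratio decrease versus DMSO gave IC50.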

K-Ras G12C = K-Ras G12C (Homo sapiens (Human), UniProt P01116+P62937, G12C); assay: Ras-Raf (BRAF RBD) disruption / FRET / MOA assay, KRAS G12C; type: biochemical; details: KRAS G12C; Ras-Raf disruption/FRET/MOA assay; read-out: IC50* KRAS G12C FRET data
Chain of K-Ras G12C (P01116-2 other isoform, or with tags, fused parts or gaps G12C): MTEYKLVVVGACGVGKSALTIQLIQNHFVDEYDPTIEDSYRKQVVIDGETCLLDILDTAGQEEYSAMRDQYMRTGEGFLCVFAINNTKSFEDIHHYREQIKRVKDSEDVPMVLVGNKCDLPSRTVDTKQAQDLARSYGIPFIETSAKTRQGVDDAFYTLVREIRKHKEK
Chain of K-Ras G12C (P62937 whole entry): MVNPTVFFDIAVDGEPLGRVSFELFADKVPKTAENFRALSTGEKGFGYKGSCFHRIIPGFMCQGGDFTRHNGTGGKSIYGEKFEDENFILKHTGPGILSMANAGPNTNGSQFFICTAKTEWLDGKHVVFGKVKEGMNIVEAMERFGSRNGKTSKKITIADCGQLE
Summary of the method: (§2)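 Ternary complex formation (Ras–compound–cyclophilin A) displacing BRAF RBD, monitored by TR-FRET. Three hours at 25° C with compound (top 30 μM final), then 1.5 h with the labelled antibodies. Lower ratio than DMSO indicates disruption; IC50 reported.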

NCI-H358 (K-Ras G12C) = assay: CellTiter-Glo cell viability assay, NCI-H358; type: cell-based, human; details: Homo sapiens, NCI-H358, 120 h, NCI-H358, 5-day treatment; class symbols; read-out: Additional H358 Cell Viability assay data (K-Ras G12C, IC50)
Summary of the method: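 Luminescent viability readout on day 5 after direct compound addition to plated cells; plates sat ~30 min at room temperature before reading. Values expressed as percent of mean DMSO signal, curves fit with a four-parameter logistic model.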

KRAS G12D = KRAS G12D (Homo sapiens (Human), UniProt P01116+P62937, G12D); assay: Ras-Raf (BRAF RBD) disruption / FRET / MOA assay, KRAS G12D; type: biochemical; details: Ras-Raf disruption/FRET/MOA assay; class symbols; read-out: KRAS G12D FRET data IC50
Chain of KRAS G12D (P01116-2 other isoform, or with tags, fused parts or gaps G12D): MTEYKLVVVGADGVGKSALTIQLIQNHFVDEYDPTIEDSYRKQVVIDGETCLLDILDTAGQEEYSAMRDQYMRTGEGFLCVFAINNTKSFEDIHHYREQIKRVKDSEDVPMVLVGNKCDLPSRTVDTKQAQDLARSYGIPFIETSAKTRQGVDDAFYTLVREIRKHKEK
Chain of KRAS G12D (P62937 whole entry): as the sequence (P62937 whole entry) above
Summary of the method: as §2

KRAS G13D = KRAS G13D (Homo sapiens (Human), UniProt P01116+P62937, G13D); assay: Ras-Raf (BRAF RBD) disruption / FRET / MOA assay, KRAS G13D; type: biochemical; details: read-out: IC50* KRAS G13D FRET data
Chain of KRAS G13D (P01116-2 other isoform, or with tags, fused parts or gaps G13D): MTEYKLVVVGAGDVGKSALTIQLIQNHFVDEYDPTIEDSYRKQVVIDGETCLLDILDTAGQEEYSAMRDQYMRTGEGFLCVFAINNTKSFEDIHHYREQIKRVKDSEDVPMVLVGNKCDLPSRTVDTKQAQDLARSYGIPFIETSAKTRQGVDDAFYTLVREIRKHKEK
Chain of KRAS G13D (P62937 whole entry): as the sequence (P62937 whole entry) above
Summary of the method: as §2

KRAS Q61H = KRAS Q61H (Homo sapiens (Human), UniProt P01116+P62937, Q61H); assay: Ras-Raf (BRAF RBD) disruption / FRET / MOA assay, KRAS Q61H; type: biochemical; details: Ras-Raf disruption/FRET/MOA assay; class symbols; read-out: KRAS Q61H FRET data IC50
Chain of KRAS Q61H (P01116-2 other isoform, or with tags, fused parts or gaps Q61H): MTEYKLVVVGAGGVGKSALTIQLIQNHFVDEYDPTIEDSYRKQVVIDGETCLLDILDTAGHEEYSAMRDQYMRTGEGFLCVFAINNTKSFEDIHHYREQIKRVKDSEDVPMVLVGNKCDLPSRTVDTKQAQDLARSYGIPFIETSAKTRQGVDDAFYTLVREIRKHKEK
Chain of KRAS Q61H (P62937 whole entry): as the sequence (P62937 whole entry) above
Summary of the method: as §1

KRAS WT = KRAS WT (Homo sapiens (Human), UniProt P01116+P62937); assay: Ras-Raf (BRAF RBD) disruption / FRET / MOA assay, KRAS WT; type: biochemical; details: read-out: IC50* KRAS WT FRET data
Chain of KRAS WT (P01116-2 other isoform, or with tags, fused parts or gaps): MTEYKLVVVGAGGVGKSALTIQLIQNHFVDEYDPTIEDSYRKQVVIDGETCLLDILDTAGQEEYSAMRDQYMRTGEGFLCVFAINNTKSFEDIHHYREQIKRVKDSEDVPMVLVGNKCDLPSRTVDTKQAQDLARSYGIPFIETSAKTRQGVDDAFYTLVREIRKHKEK
Chain of KRAS WT (P62937 whole entry): as the sequence (P62937 whole entry) above
Summary of the method: as §2

KRAS G12V = KRAS G12V (Homo sapiens (Human), UniProt P01116+P62937, G12V); assay: Ras-Raf (BRAF RBD) disruption / FRET / MOA assay, KRAS G12V; type: biochemical; details: read-out: IC50* KRAS G12V FRET data
Chain of KRAS G12V (P01116-2 other isoform, or with tags, fused parts or gaps G12V): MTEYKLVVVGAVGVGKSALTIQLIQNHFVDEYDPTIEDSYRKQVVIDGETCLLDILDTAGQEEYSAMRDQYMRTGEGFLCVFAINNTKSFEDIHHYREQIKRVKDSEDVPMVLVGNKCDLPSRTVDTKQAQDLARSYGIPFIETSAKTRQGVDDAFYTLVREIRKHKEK
Chain of KRAS G12V (P62937 whole entry): as the sequence (P62937 whole entry) above
Summary of the method: as §2

K-Ras G13C = K-Ras G13C (Homo sapiens (Human), UniProt P01116+P62937, G13C); assay: Ras-Raf (BRAF RBD) disruption / FRET / MOA assay, KRAS G13C; type: biochemical; details: KRAS G13C; Ras-Raf disruption/FRET/MOA assay; read-out: IC50* KRAS G13C FRET data
Chain of K-Ras G13C (P01116-2 other isoform, or with tags, fused parts or gaps G13C): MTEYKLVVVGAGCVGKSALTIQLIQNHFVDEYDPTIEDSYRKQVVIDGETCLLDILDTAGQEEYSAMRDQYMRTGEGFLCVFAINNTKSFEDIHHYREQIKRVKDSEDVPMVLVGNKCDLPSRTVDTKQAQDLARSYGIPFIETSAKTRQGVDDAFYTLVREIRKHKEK
Chain of K-Ras G13C (P62937 whole entry): as the sequence (P62937 whole entry) above
Summary of the method: as §2

NRAS Q61R = NRAS Q61R (Homo sapiens (Human), UniProt P01111+P62937, Q61R); assay: Ras-Raf (BRAF RBD) disruption / FRET / MOA assay, NRAS Q61R; type: biochemical; details: NRAS Q61R; Ras-Raf disruption/FRET/MOA assay; read-out: IC50* NRAS Q61R FRET data
Chain of NRAS Q61R (P01111 whole entry Q61R): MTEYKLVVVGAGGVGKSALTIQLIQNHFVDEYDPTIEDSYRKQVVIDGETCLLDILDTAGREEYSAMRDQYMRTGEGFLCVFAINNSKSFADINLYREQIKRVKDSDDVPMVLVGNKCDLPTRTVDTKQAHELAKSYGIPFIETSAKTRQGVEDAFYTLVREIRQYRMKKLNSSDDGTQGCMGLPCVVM
Chain of NRAS Q61R (P62937 whole entry): as the sequence (P62937 whole entry) above
Summary of the method: as §1

Chain of NRAS WT (P01111 whole entry): as the sequence (P01111 whole entry Q61R) above, with R61Q counted along it
Chain of NRAS WT (P62937 whole entry): as the sequence (P62937 whole entry) above

| SMILES | IC50 (NRAS WT) | IC50 (K-Ras G12C) | IC50 (NCI-H358 (K-Ras G12C)) | IC50 (KRAS G12D) | IC50 (KRAS G13D) | IC50 (KRAS Q61H) | IC50 (KRAS WT) | IC50 (KRAS G12V) | IC50 (K-Ras G13C) | IC50 (NRAS Q61R) |
| --- | --- | --- | --- | --- | --- | --- | --- | --- | --- | --- |
| CCn1c(-c2cccnc2[C@H](C)OC)c2c3cc(ccc31)-c1csc(n1)C[C@H](NC(=O)CN1CC[C@@]3(CCN(C(=O)C#CC(C)(C)N4CCC4)C3)C1)C(=O)N1CCC[C@H](N1)C(=O)OCC(C)(C)C2 (atropisomer, axis not shown) [Example A364] | 1 to 10 µM | 0.1 to 1 µM | 0.1 to 1 µM | > 10 µM | 1 to 10 µM | 1 to 10 µM | 1 to 10 µM | 1 to 10 µM | 1 to 10 µM | 1 to 10 µM |
| CCn1c(-c2cccnc2[C@H](C)OC)c2c3cc(ccc31)-c1csc(n1)C[C@H](NC(=O)CCO[C@@H]1CCN(C(=O)C#CC(C)(C)N3CCC3)C1)C(=O)N1CCC[C@H](N1)C(=O)OCC(C)(C)C2 (atropisomer, axis not shown) [Example A366] | 1 to 10 µM | 0.01 to 0.1 µM | 0.1 to 1 µM | 1 to 10 µM | 1 to 10 µM | 0.1 to 1 µM | 1 to 10 µM | 0.1 to 1 µM | 0.1 to 1 µM | 1 to 10 µM |
| C=CC(=O)N1CC[C@H](C(=O)N(C)[C@H](C(=O)N[C@H]2Cc3cc(cc(C(F)F)c3)-c3ccc4c(c3)c(c(-c3cccnc3[C@H](C)OC)n4CC(F)(F)F)CC(C)(C)COC(=O)[C@@H]3CCCN(N3)C2=O)C(C)C)C1 (atropisomer, axis not shown) [Example A372] | 1 to 10 µM | 0.1 to 1 µM | 0.01 to 0.1 µM | > 10 µM | 1 to 10 µM | 0.1 to 1 µM | 1 to 10 µM | 1 to 10 µM | 0.1 to 1 µM | 1 to 10 µM |
| CCn1c(-c2cccnc2[C@H](C)OC)c2c3cc(ccc31)N1CCO[C@@H](C[C@H](NC(=O)[C@@H](COC3CN(C(=O)C#CC(C)(C)N(C)C)C3)C(C)C)C(=O)N3CCC[C@H](N3)C(=O)OCC(C)(C)C2)C1 (atropisomer, axis not shown) [Example A377, (2R)-2-(((1-(4-(dimethylamino)-4-methylpent-2-ynoyl)azetidin-3-yl)oxy)methyl)-N-((2^2S,6^3S,4S)-1^1-ethyl-1^2-(2-((S)-1-methoxyethyl)pyridin-3-yl)-10,10-dimethyl-5,7-dioxo-6^1,6^2,6^3,6^4,6^5,6^6-hexahydro-1^1H-8-oxa-2(4,2)-morpholina-1(5,3)-indola-6(1,3)-pyridazinacycloundecaphane-4-yl)-3-methylbutanamide] | > 10 µM | < 0.01 µM | < 0.01 µM | > 10 µM | > 10 µM | > 10 µM | > 10 µM | > 10 µM | 1 to 10 µM | > 10 µM |
| CO[C@@H](C)c1ncccc1-c1c2c3cc(ccc3n1CC(F)(F)F)-c1csc(n1)C[C@H](NC(=O)CCOC1CN(C(=O)C#CC(C)(C)N(C)C)C1)C(=O)N1CCC[C@H](N1)C(=O)OCC(C)(C)C2 (atropisomer, axis not shown) [Example A380] | 1 to 10 µM | < 0.01 µM | < 0.01 µM | 1 to 10 µM | 1 to 10 µM | 1 to 10 µM | 1 to 10 µM | 0.1 to 1 µM | 0.1 to 1 µM | 1 to 10 µM |
| C=CC(=O)N1C[C@H](C)N(C(=O)N(C)[C@H](C(=O)N[C@H]2Cc3nc(cs3)-c3ccc4c(c3)c(c(-c3cccnc3[C@H](C)OC)n4CC)CC(C)(C)COC(=O)[C@@H]3CCCN(N3)C2=O)C(C)C)[C@@H](C)C1 (atropisomer, axis not shown) [Example A386] | 0.01 to 0.1 µM | 0.01 to 0.1 µM | 0.01 to 0.1 µM | 0.1 to 1 µM | 0.1 to 1 µM | 0.01 to 0.1 µM | 0.01 to 0.1 µM | 0.1 to 1 µM | 0.1 to 1 µM | 0.01 to 0.1 µM |
| C=CC(=O)N1C[C@@H](C)N(C(=O)N(C)[C@H](C(=O)N[C@H]2Cc3nc(cs3)-c3ccc4c(c3)c(c(-c3cccnc3[C@H](C)OC)n4CC)CC(C)(C)COC(=O)[C@@H]3CCCN(N3)C2=O)C(C)C)[C@@H](C)C1 (atropisomer, axis not shown) [Example A387] | 0.01 to 0.1 µM | 0.01 to 0.1 µM | 0.01 to 0.1 µM | 0.1 to 1 µM | 0.1 to 1 µM | 0.01 to 0.1 µM | 0.01 to 0.1 µM | 0.1 to 1 µM | 0.1 to 1 µM | 0.01 to 0.1 µM |
| C=CC(=O)N1CC2(CCN(C(=O)N(C)[C@H](C(=O)N[C@H]3Cc4nc(cs4)-c4ccc5c(c4)c(c(-c4cccnc4[C@H](C)OC)n5CC)CC(C)(C)COC(=O)[C@@H]4CCCN(N4)C3=O)C(C)C)CC2)C1 (atropisomer, axis not shown) [Example A394] | 0.1 to 1 µM | 0.01 to 0.1 µM | < 0.01 µM | 0.1 to 1 µM | 0.1 to 1 µM | 0.01 to 0.1 µM | 0.1 to 1 µM | 0.1 to 1 µM | 0.01 to 0.1 µM | 0.1 to 1 µM |
| C=CC(=O)N1CCN(C(=O)N(C)[C@H](C(=O)N[C@H]2Cc3nc(cs3)-c3ccc4c(c3)c(c(-c3cccnc3[C@H](C)OC)n4CC)CC(C)(C)COC(=O)[C@@H]3CCCN(N3)C2=O)C(C)C)CC12CC2 (atropisomer, axis not shown) [Example A417] | 0.01 to 0.1 µM | 0.01 to 0.1 µM | 0.01 to 0.1 µM | 0.1 to 1 µM | 0.1 to 1 µM | 0.01 to 0.1 µM | 0.1 to 1 µM | 0.1 to 1 µM | 0.01 to 0.1 µM | 0.01 to 0.1 µM |
| CCn1c(-c2cccnc2[C@H](C)OC)c2c3cc(ccc31)-c1csc(n1)C[C@H](NC(=O)CCOC1CN(C(=O)C#CC(C)(C)N(C)C)C1)C(=O)N1CCC[C@H](N1)C(=O)OCC(C)(C)C2 (atropisomer, axis not shown) [Example A427, 3-((1-(4-(dimethylamino)-4-methylpent-2-ynoyl)azetidin-3-yl)oxy)-N-((6^3S,4S,Z)-1^1-ethyl-1^2-(2-((S)-1-methoxyethyl)pyridin-3-yl)-10,10-dimethyl-5,7-dioxo-6^1,6^2,6^3,6^4,6^5,6^6-hexahydro-1^1H-8-oxa-2(4,2)-thiazola-1(5,3)-indola-6(1,3)-pyridazinacycloundecaphane-4-yl)propanamide] | 1 to 10 µM | < 0.01 µM | < 0.01 µM | > 10 µM | 1 to 10 µM | 1 to 10 µM | 1 to 10 µM | 1 to 10 µM | 1 to 10 µM | > 10 µM |
